# Data as given in patent US6056958A, “Method of treatment of arterial and venous thromboembolic disorders” (Dupont Pharmaceuticals, priority 1997, dated 2000).
# Non-standard residues stand in square brackets, D forms with d. Residues, ends and D or L forms follow the SMILES beside them. 3Amb = NCc1cccc(C(=O)O)c1
# Assays:
# [1] = system: dog thrombosis model (carotid artery, femoral artery, femoral vein); test: Carotid, Femoral Artery and Femoral Vein Thrombosis in Dogs (Electrolytic Injury Model); type: in vivo; conditions: for Incidence of Occlusion / Time to Occlusion / Blood Flow, Basal / Blood Flow, End: dog carotid artery; for Incidence of Occlusion: saline 44/44; for Time to Occlusion: saline 93 ±30.4; for Blood Flow, End: saline 0; for Thrombus Weight (wet, mg), left femoral vein / Thrombus Weight (wet, mg), left carotid artery: dog, P<0.05
# Source text: Carotid, Femoral Artery and Femoral Vein Thrombosis In Dogs (Electrolytic Injury Model)
# The thrombosis model used in this study is a modification of the one described by Rote et al., J. Cardiovascular Pharmacolgy, 1993, 23:194-202. The experimental procedure provides the formation of a platelet rich intravascular thrombus at the site of the electrolytically-induced lesion in the arterial side. The femoral artery and carotid artery responses to the electrolytic injury are similar to that observed in the canine coronary artery in which intimal wall injury secondary to application of a direct anodal current leads to platelet adherence with the resultant occlusive thrombus formation (Rote et al., J. Cardiovascular Pharmacolgy, 1993, 23:194-202; Mousa et al., Circulation, 1994, 89:3-12). Animals were instrumented and a 20-30 mm segment of the femoral or carotid arteries were exposed and freed from facia, and branches were tied. Anodal current was applied using an intravascular electrode Penetration of the vessel wall by the electrode was facilitated by attaching the tip of a 23 gauge hypodermic needle to the uninsulated part of the electrode. Each intra-arterial electrode was connected to the positive pole (anodal) of a dual channel stimulator (Ni-Cad battery, 9 volts connected to 250,000 Ohm potentiometer in series). The cathode was connected to a distant subcutaneous site. The current delivered to the arterial wall was monitored continuously and maintained at 200 μA. Proper positioning of the electrode in the artery was confirmed by visual inspection at the end of each experiment. In all experiments the anodal current was applied for a maximum period of 3 hours. Arterial flow was monitored throughout the experiment by placing a doppler flow probe connected to a flow meter around the distal portion of the vessel segment. Similar procedures were applied to the femoral vein. […]
# [2] = Bleeding Time in anesthetized dogs (tongue incision); conditions: dog, IV, saline 3-5
# Protocol: A Simplate device (Organo Teknika) was applied to the surface of the tongue to make a uniform incision and blood was blotted with filter paper at 30 seconds intervals until bleeding completely stopped, with a 15 minutes cutoff time. Bleeding time was assessed before and at different intervals post-administration of test agent.
# [3] = dog, in vivo
# Protocol: Clotting Assay (Thrombin and Apothrombin Times)
# Arterial blood samples were collected in 1/10th volume 3.8% sodium citrate and stored on ice for less than ten 10 minutes. Samples were centrifuged (10,000× g, 1.5 minutes) and plasma separated from cellular components. Clotting assays were performed within 30 minutes of collection in a fibrometer (BBL Bibrosystem) at 37° C. Thrombin time determinations were performed at a final thrombin concentration of 4 units/mL. Activated partial thromboplastin time (also referred to as apothrombin time) (APTT) was determined by incubating 0.1 mL plasma with 0.1 mL APTT reagent (Sigma Chemical) for three minutes, followed by addition of 0.1 mL of 25 mM CaCl2. Prothrombin time was determined by incubating 0.1 mL plasma with 0.1 mL thromboplastin, and clotting initiated by addition of 0.1 mL of 25 mM CaCl2. Assays were performed in duplicate.
# [4] = 0.1 mg/kg IV bolus + 0.1 mg/kg IV infusion 3 hr
# [5] = 0.1 mg/kg IV bolus + 0.4 mg/kg IV infusion 3 hr
Structure (SMILES),"Incidence of Occlusion [1, 4]","Time to Occlusion [1, 4]","Blood Flow, Basal ([1]; 0.1 mg/kg IV bolus + 0.1 mg/kg IV infusion 3 hr, spread ±4.7)","Blood Flow, End ([1]; 0.1 mg/kg IV bolus + 0.1 mg/kg IV infusion 3 hr, spread ±11)","Incidence of Occlusion [1, 5]","Time to Occlusion [1, 5]","Blood Flow, Basal ([1]; 0.1 mg/kg IV bolus + 0.4 mg/kg IV infusion 3 hr, spread ±2.7)","Blood Flow, End ([1]; 0.1 mg/kg IV bolus + 0.4 mg/kg IV infusion 3 hr, spread ±8.1)","Cyclic Flow Rate (frequency/hr) ([1]; dog femoral artery, 0.1 mg/kg IV bolus + 0.1 mg/kg IV infusion 3 hr, n=4, mean ± SD, P<0.01, saline 8 ± 5.5)","Thrombus Weight (wet, mg), left femoral vein ([1]; 0.1 mg/kg IV bolus + 0.4 mg/kg infusion 3 hr, n=4, mean ± SD, saline 18 ± 5)","Thrombus Weight (wet, mg), left carotid artery ([1]; 0.1 mg/kg IV bolus + 0.4 mg/kg infusion 3 hr, n=4, mean ± SD, saline 53 ± 4)","Thrombus Weight (wet, mg), left carotid artery ([1]; 1 mg/kg IV bolus, n=3, 200 μA, mean ± SD, saline right carotid 51 ± 4)","Thrombus Weight (wet, mg), left femoral vein ([1]; 1 mg/kg IV bolus, n=3, 200 μA, mean ± SD, saline right femoral vein 18 ± 5)",Bleeding Time ([2]; 1 mg/kg),Bleeding Time ([2]; 3 mg/kg),Bleeding Time ([2]; 10 mg/kg),effect on apothrombin time or thrombin time [3]
"C[C@@H]1NC(=O)c2cccc(c2)CNC(=O)[C@H](CC(=O)O)NC(=O)CNC(=O)[C@H](CCCNC(=N)N)NC1=O [Compound A, cyclo-(Ala-Arg-Gly-Asp-Mamb)] (cyclo(RGD[3Amb]A))",0/4,> 180 min,29.4 cm/s,16.3 cm/s,0/4,> 180 min,30.2 cm/s,23.8 cm/s,0.5 ± 0.4 frequency/hr,2 ± 1 mg,13 ± 2 mg,14 ± 4 mg,4 ± 3 mg,3 to 4 min,3 to 4 min,5 to 6 min,–
"N=C(N)NCCC[C@@H]1NC(=O)[C@@H]2CCCN2C(=O)c2cccc(c2)CNC(=O)[C@H](CC(=O)O)NC(=O)CNC1=O [Compound B, cyclo-(Pro-Arg-Gly-Asp-Mamb)] (cyclo(RGD[3Amb]P))",–,–,–,–,–,–,–,–,–,–,–,–,–,–,–,–,no effect on apothrombin time or thrombin time
